Laboratory results: the supplement of paper PMC10307832

Legend:
Assay in all cases: relative viability (nuclei count vs DMSO), 5 days (fraction); higher = more cells survive
Apatinib + Pemetrexed = compound: N#CC1(c2ccc(NC(=O)c3cccnc3NCc3ccncc3)cc2)CCCC1 [Apatinib] + Nc1nc2[nH]cc(CCc3ccc(C(=O)N[C@@H](CCC(=O)O)C(=O)O)cc3)c2c(=O)[nH]1 [Pemetrexed] (partner 0.2 µM)
Method in brief: (§1)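 After 5 days of treatment, lung cancer cells in 1536-well plates were fixed and stained in a single step (final 0.05% Triton X-100, 1% formaldehyde, 1 ug/ml Hoechst) and their nuclei counted on 4× images. Treatment had been applied by pin tool the day after seeding as one drug alone or as a fixed anchor-drug dose with five library-drug doses (not always all listed) in √10 steps. Relative viability is the nuclei count of treated wells divided by that of vehicle wells, and values are medians of duplicate plates.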

Apatinib + OSI-027 = compound: N#CC1(c2ccc(NC(=O)c3cccnc3NCc3ccncc3)cc2)CCCC1 [Apatinib] + COc1cccc2cc(-c3nc([C@H]4CC[C@H](C(=O)O)CC4)n4ncnc(N)c34)[nH]c12 [OSI-027] (partner 0.5 µM)
Method in brief: as §1

Apatinib + Lapatinib = compound: N#CC1(c2ccc(NC(=O)c3cccnc3NCc3ccncc3)cc2)CCCC1 [Apatinib] + CS(=O)(=O)CCNCc1ccc(-c2ccc3ncnc(Nc4ccc(OCc5cccc(F)c5)c(Cl)c4)c3c2)o1 [Lapatinib] (partner 2 µM)
Method in brief: as §1

Metformin + Foretinib = compound: CN(C)C(=N)NC(=N)N [Metformin] + COc1cc2c(Oc3ccc(NC(=O)C4(C(=O)Nc5ccc(F)cc5)CC4)cc3F)ccnc2cc1OCCCN1CCOCC1 [Foretinib] (partner 0.25 µM)
Method in brief: as §1

Cell Line | relative viability (Apatinib + Pemetrexed; first compound 0.08 µM) | relative viability (Apatinib + Pemetrexed; first compound 0.253 µM) | relative viability (Apatinib + Pemetrexed; first compound 0.8 µM) | relative viability (Apatinib + Pemetrexed; first compound 2.53 µM) | relative viability (Apatinib + Pemetrexed; first compound 8 µM) | relative viability (Apatinib + OSI-027; first compound 0.08 µM) | relative viability (Apatinib + OSI-027; first compound 0.253 µM) | relative viability (Apatinib + OSI-027; first compound 0.8 µM) | relative viability (Apatinib + OSI-027; first compound 2.53 µM) | relative viability (Apatinib + OSI-027; first compound 8 µM) | relative viability (Apatinib + Lapatinib; first compound 0.08 µM) | relative viability (Apatinib + Lapatinib; first compound 0.253 µM) | relative viability (Apatinib + Lapatinib; first compound 0.8 µM) | relative viability (Apatinib + Lapatinib; first compound 2.53 µM) | relative viability (Apatinib + Lapatinib; first compound 8 µM) | relative viability (Metformin + Foretinib; first compound 10 µM) | relative viability (Metformin + Foretinib; first compound 31.62 µM) | relative viability (Metformin + Foretinib; first compound 100 µM) | relative viability (Metformin + Foretinib; first compound 316.23 µM) | relative viability (Metformin + Foretinib; first compound 1000 µM)
NCI-H1975 | 0.296 | 0.299 | 0.271 | 0.282 | 0.203 | 0.718 | 0.901 | 0.55 | 0.418 | 0.42 | 0.929 | 1.15 | 0.835 | 0.738 | 0.904 | 1.16 | 1.1 | 1.08 | 1.06 | 1.21
HARA | 0.246 | 0.227 | 0.21 |  | 0.173 | 0.782 | 0.359 | 0.482 | 0.448 | 0.303 | 0.755 | 0.895 | 0.674 | 0.731 | 0.623 |  | 1.03 | 1.21 | 1 | 1.09
NCI-H1299 |  |  |  |  |  |  |  |  |  |  | 0.99 | 1.01 | 0.981 | 0.938 | 0.773 | 1.09 | 1.12 | 1.14 | 1.11 | 1.13
ChaGo-K-1 | 0.27 | 0.249 | 0.263 | 0.24 | 0.245 | 0.628 | 0.616 | 0.491 | 0.455 | 0.493 |  |  |  |  |  | 0.924 | 1.07 | 0.959 | 0.864 | 0.962
ABC-1 |  |  |  |  |  |  | 0.543 | 0.453 | 0.499 | 0.336 | 1.03 | 1.45 | 1.42 | 1.14 | 0.993 | 1.48 | 1.14 | 1.05 | 1.02 | 0.287
A549 |  |  |  |  |  |  |  |  |  |  | 1.14 | 1.05 | 1.04 | 0.944 | 0.842 | 0.867 | 0.9 | 0.9 | 0.853 | 0.944
NCI-H1648 | 0.681 | 0.613 | 0.706 | 0.548 | 0.691 | 0.272 | 0.253 | 0.265 | 0.267 | 0.261 |  |  |  |  |  |  |  |  |  | 
SW 900 | 0.486 | 0.467 | 0.427 | 0.379 | 0.321 | 0.563 | 0.605 | 0.497 | 0.545 | 0.412 |  |  |  |  |  | 0.919 | 0.884 | 0.736 | 0.846 | 0.882
NCI-H1792 | 0.984 | 0.722 | 0.993 | 0.558 | 0.447 | 0.778 | 0.659 | 0.693 | 0.475 | 0.439 | 0.873 | 0.877 | 0.855 | 0.798 | 0.844 |  |  |  |  | 
LCLC-103H | 0.439 | 0.463 | 0.412 | 0.432 | 0.39 | 0.495 | 0.477 | 0.384 | 0.401 | 0.457 |  |  |  |  |  | 0.823 | 1.09 | 0.881 | 0.781 | 0.923
NCI-H1623 |  |  |  |  |  | 0.443 | 0.423 | 0.404 | 0.351 | 0.385 |  |  |  |  |  | 0.799 | 0.811 | 1.02 | 1.01 | 0.864
NCI-H2342 | 0.731 | 0.73 | 0.744 | 0.733 | 0.737 | 0.579 | 0.573 | 0.626 | 0.529 | 0.518 |  |  |  |  |  | 0.972 | 1.15 | 1.07 | 1 | 1.21
NCI-H1703 |  |  |  |  |  |  |  |  |  |  | 1.01 | 0.685 | 0.291 | 0.228 | 0.276 | 0.497 | 0.504 | 0.549 | 0.474 | 0.496
Calu-6 |  |  |  |  |  |  |  |  |  |  | 1.13 | 1.1 | 0.988 | 0.919 | 0.789 | 0.809 | 0.878 | 0.917 | 0.795 | 0.821
EBC-1 |  |  |  |  |  |  |  |  |  |  | 0.194 | 0.197 | 0.235 | 0.231 | 0.237 | 0.0914 | 0.09 |  | 0.103 | 0.0951
IA-LM |  |  |  |  |  |  |  |  |  |  | 0.814 | 0.677 | 0.772 | 0.6 | 0.305 | 1.18 | 1.27 | 1.43 | 1.11 | 1.28
HCC-44 | 0.677 | 0.626 | 0.616 | 0.63 | 0.521 | 0.457 | 0.524 | 0.395 | 0.446 | 0.522 | 1.04 | 0.993 | 0.991 | 0.945 | 0.941 |  |  |  |  | 
NCI-H727 |  |  |  |  |  | 0.55 | 0.565 | 0.533 | 0.642 | 0.466 | 0.707 | 0.879 | 0.9 | 0.727 | 0.825 | 0.971 | 0.769 | 0.959 | 0.914 | 0.927
NCI-H441 | 0.302 | 0.274 | 0.261 | 0.205 | 0.192 | 0.609 | 0.625 | 0.541 | 0.436 | 0.339 |  |  |  |  |  |  | 0.879 | 0.799 | 0.788 | 0.77
